Organism: Rattus norvegicus
Assay: Open TG-GATES - Regimen: Single
Format: toxicity, organism-based, Sprague-Dawley
Parameters: regimen Single, gender Male, age 6 weeks
Conditions: in vivo, po, 100 mg/kg, route gavage, dose level Low; for APTT / Bas / Eos / Fbg / Hb / Ht / Lym / MCH / MCHC / MCV / Mono / Neu / PT / Plat / RBC / Ret / WBC: tissue Blood; for KIDNEY_L / KIDNEY_R / KIDNEY_TOTAL: tissue Kidney; for LIVER: tissue Liver; for A/G / ALP / ALT / AST / BUN / CRE / Ca / Cl / DBIL / GLC / IP / K / LDH / Na / PL / RALB / TBIL / TC / TG / TP / gamma-GTP: tissue Plasma

CCC1(c2ccccc2)C(=O)NC(=O)NC1=O [PHENOBARBITAL]
TERMINAL_BW (3 h): 225.5 g | APTT (3 h): 20.6 s | Bas (3 h): 0% | Eos (3 h): 1% | Fbg (3 h): 220.6 mg/dL | Hb (3 h): 13.7 g/dL | Ht (3 h): 37.8% | Lym (3 h): 76.6% | MCH (3 h): 22.2 pg | MCHC (3 h): 36.1% | MCV (3 h): 61.3 fL | Mono (3 h): 3.4% | Neu (3 h): 18.2% | PT (3 h): 12 s | Plat (3 h): 126.2 x10_4/uL | RBC (3 h): 616.6 x10_4/ul | Ret (3 h): 7.8% | WBC (3 h): 85.2 x10_2/uL | KIDNEY_L (3 h): 1 g | KIDNEY_R (3 h): 1 g | KIDNEY_TOTAL (3 h): 2.1 g | LIVER (3 h): 10.1 g | A/G (3 h): 1.6 | ALP (3 h): 991 IU/L | ALT (3 h): 33.4 IU/L | AST (3 h): 67.4 IU/L | BUN (3 h): 8.4 mg/dL | CRE (3 h): 0.3 mg/dL | Ca (3 h): 10.7 mg/dL | Cl (3 h): 101.4 meq/L | DBIL (3 h): 0.064 mg/dL | GLC (3 h): 179.4 mg/dL | IP (3 h): 9.7 mg/dL | K (3 h): 4.4 meq/L | LDH (3 h): 168.4 IU/L | Na (3 h): 139.8 meq/L | PL (3 h): 156.6 mg/dL | RALB (3 h): 3.3 g/dL | TBIL (3 h): 0.1 mg/dL | TC (3 h): 83.4 mg/dL | TG (3 h): 83.8 mg/dL | TP (3 h): 5.3 g/dL | gamma-GTP (3 h): 1 IU/L | TERMINAL_BW (6 h): 222.4 g | APTT (6 h): 18 s | Bas (6 h): 0.2% | Eos (6 h): 0.8% | Fbg (6 h): 237.8 mg/dL | Hb (6 h): 13.7 g/dL | Ht (6 h): 37.9% | Lym (6 h): 79.8% | MCH (6 h): 21.4 pg | MCHC (6 h): 36.2% | MCV (6 h): 59 fL | Mono (6 h): 3.4% | Neu (6 h): 15% | PT (6 h): 11.8 s | Plat (6 h): 124.2 x10_4/uL | RBC (6 h): 643 x10_4/ul | Ret (6 h): 8.1% | WBC (6 h): 90.7 x10_2/uL | KIDNEY_L (6 h): 1 g | KIDNEY_R (6 h): 0.9 g | KIDNEY_TOTAL (6 h): 1.9 g | LIVER (6 h): 9.4 g | A/G (6 h): 1.6 | ALP (6 h): 1012 IU/L | ALT (6 h): 31.8 IU/L | AST (6 h): 64.8 IU/L | BUN (6 h): 7.6 mg/dL | CRE (6 h): 0.4 mg/dL | Ca (6 h): 10.7 mg/dL | Cl (6 h): 100.4 meq/L | DBIL (6 h): 0.074 mg/dL | GLC (6 h): 191.8 mg/dL | IP (6 h): 10.1 mg/dL | K (6 h): 3.9 meq/L | LDH (6 h): 173.2 IU/L | Na (6 h): 139.6 meq/L | PL (6 h): 138.8 mg/dL | RALB (6 h): 3.3 g/dL | TBIL (6 h): 0.1 mg/dL | TC (6 h): 71 mg/dL | TG (6 h): 68.8 mg/dL | TP (6 h): 5.5 g/dL | gamma-GTP (6 h): 0.8 IU/L | TERMINAL_BW (9 h): 220.3 g | APTT (9 h): 19.6 s | Bas (9 h): 0.4% | Eos (9 h): 0.8% | Fbg (9 h): 215.6 mg/dL | Hb (9 h): 13.8 g/dL | Ht (9 h): 38.2% | Lym (9 h): 74.6% | MCH (9 h): 21.6 pg | MCHC (9 h): 36.2% | MCV (9 h): 59.6 fL | Mono (9 h): 2.6% | Neu (9 h): 20.6% | PT (9 h): 12.4 s | Plat (9 h): 124.9 x10_4/uL | RBC (9 h): 640.6 x10_4/ul | Ret (9 h): 7.4% | WBC (9 h): 90 x10_2/uL | KIDNEY_L (9 h): 1 g | KIDNEY_R (9 h): 1 g | KIDNEY_TOTAL (9 h): 1.9 g | LIVER (9 h): 9.2 g | A/G (9 h): 1.6 | ALP (9 h): 848.2 IU/L | ALT (9 h): 25.2 IU/L | AST (9 h): 60.4 IU/L | BUN (9 h): 10.4 mg/dL | CRE (9 h): 0.3 mg/dL | Ca (9 h): 10.4 mg/dL | Cl (9 h): 101 meq/L | DBIL (9 h): 0.064 mg/dL | GLC (9 h): 196.4 mg/dL | IP (9 h): 8.7 mg/dL | K (9 h): 3.9 meq/L | LDH (9 h): 154.4 IU/L | Na (9 h): 140.4 meq/L | PL (9 h): 129.8 mg/dL | RALB (9 h): 3.4 g/dL | TBIL (9 h): 0.1 mg/dL | TC (9 h): 64.4 mg/dL | TG (9 h): 55.6 mg/dL | TP (9 h): 5.5 g/dL | gamma-GTP (9 h): 0.6 IU/L | TERMINAL_BW (24 h): 234.5 g | APTT (24 h): 21 s | Bas (24 h): 0.8% | Eos (24 h): 1% | Fbg (24 h): 217.8 mg/dL | Hb (24 h): 13.5 g/dL | Ht (24 h): 37.2% | Lym (24 h): 77.8% | MCH (24 h): 22.2 pg | MCHC (24 h): 36.2% | MCV (24 h): 61.3 fL | Mono (24 h): 2.6% | Neu (24 h): 17.8% | PT (24 h): 11.8 s | Plat (24 h): 122.9 x10_4/uL | RBC (24 h): 607.6 x10_4/ul | Ret (24 h): 6.6% | WBC (24 h): 114.9 x10_2/uL | KIDNEY_L (24 h): 1.1 g | KIDNEY_R (24 h): 1.1 g | KIDNEY_TOTAL (24 h): 2.3 g | LIVER (24 h): 12 g | A/G (24 h): 1.6 | ALP (24 h): 1006.8 IU/L | ALT (24 h): 39 IU/L | AST (24 h): 70.6 IU/L | BUN (24 h): 14.4 mg/dL | CRE (24 h): 0.4 mg/dL | Ca (24 h): 10.8 mg/dL | Cl (24 h): 102.4 meq/L | DBIL (24 h): 0.062 mg/dL | GLC (24 h): 183.4 mg/dL | IP (24 h): 7.3 mg/dL | K (24 h): 3.8 meq/L | LDH (24 h): 181.4 IU/L | Na (24 h): 142 meq/L | PL (24 h): 132.6 mg/dL | RALB (24 h): 3.4 g/dL | TBIL (24 h): 0.1 mg/dL | TC (24 h): 64 mg/dL | TG (24 h): 105.4 mg/dL | TP (24 h): 5.6 g/dL | gamma-GTP (24 h): 0.8 IU/L
